Columns and labels:
PBR [1] = target: T1, PBR (Homo sapiens, UniProt P30536); experiment: Fluorescent microscopy with compound 4 fluorescent PBR ligand, cultured cells; type: cell-based; set-up: endogenous in cells; host or cells: MDA-231, MCF-7 and MCF-7ADR (ADR) human breast cancer cells, whole cells or isolated nuclei; details: MDA-231 cells, 100 uM competitor, 1 uM compound 4, 45 min at 37° C.
Description: Fluorescent Microscopy with the compound 4 fluorescent PBR Ligand—MA-10, MDA-231, MCF-7, and ADR cells were grown on glass coverslips as previously described [Kozikowski et al. (1997) J. Med. Chem. 40: 2435-2439]. Cells were then washed twice with sterile PBS and incubated for 45 min with 1 uM compound 4, a fluorescent derivative of the PBR ligand FGIN-27, with or without a competing PBR ligand, FGIN-27, at a concentration of 100 uM. After the incubation period, the cells were washed with PBS and examined by fluorescent microscopy using an Olympus BH-2 fluorescence microscope.
Target sequence in this assay (P30536 2-169): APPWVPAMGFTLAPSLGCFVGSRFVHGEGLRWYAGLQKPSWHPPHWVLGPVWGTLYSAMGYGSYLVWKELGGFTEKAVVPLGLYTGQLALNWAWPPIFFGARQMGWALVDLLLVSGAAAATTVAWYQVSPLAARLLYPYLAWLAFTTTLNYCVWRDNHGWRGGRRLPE

[2] = target: T2, peripheral-type benzodiazepine receptor (PBR) (Homo sapiens, UniProt P30536); experiment: [3H]PK11195 radioligand binding to whole cells (Scatchard analysis, competition); details: 50 μg protein, [3H]PK11195, Scatchard plot
T2 construct: Cells were scraped from 150 mm culture dishes into 5 ml phosphate buffered saline (PBS); endogenous in cells; host or cells: MDA-231, MCF-7 and MCF-7ADR (ADR) human breast cancer cells, whole cells or isolated nuclei
Description: (§1) Radioligand Binding Assays—Cells were scraped from 150 mm culture dishes into 5 ml phosphate buffered saline (PBS), dispersed by trituration, and centrifuged at 500×g for 15 min. Cell pellets were resuspended in PBS and assayed for protein concentration. […] Scatchard plots were analyzed by the LIGAND program [Munson, (1980) Anal. Biochem. 107:220]. […] IC50 estimation was performed using the LIGAND program (Munson, 1980, supra).

MDA-231 nuclei = experiment: Nuclear uptake of 3H-cholesterol, MDA-231 nuclei; type: biochemical, human; details: -8 to -6M PK11195, MDA-231 nuclei, 60 min at 37° C.
Description: (§2) Nuclear Uptake of ^3H-Cholesterol—Nuclei were isolated from MDA-231, MCF-7, and as described by Elango et al (1997). […] Samples were then centrifuged at 500×g for 30 min and pellets were washed in […] ice-cold PBS. After a second centrifugation at 500×g for 30 min, 200 ul 1.0 N NaOH was then added to the pellets and incubated overnight at 37° C. After incubation, 200 ul 1.0 N HCl was added and samples were vigorously vortexed. 3 ml scintillation cocktail (Eco-Lite) was then added prior to reading radioactivity on a Wallac 1409 Liquid Scintillation Counter.

PBR [3] = target: T1, PBR; experiment: Compound 4 fluorescence labeling of human breast tissue biopsies; set-up: Paraffin embedded sections of normal breast tissue; from tissue; host or cells: human breast biopsies (normal tissue and aggressive carcinoma), Lombardi Cancer Center; details: 1000 fold excess of competitive ligand
Target sequence in this assay (P30536 whole entry): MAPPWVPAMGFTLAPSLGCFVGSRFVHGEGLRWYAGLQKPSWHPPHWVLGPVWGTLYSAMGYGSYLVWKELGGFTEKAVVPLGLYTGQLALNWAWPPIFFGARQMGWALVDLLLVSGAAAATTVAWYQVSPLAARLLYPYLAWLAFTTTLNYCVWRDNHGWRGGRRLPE
Description: PBR ligand binding activity was determined using the fluorescent PBR derivative compound 4 [Munson, 1980, supra]
In some samples, the hematoxylin counterstaining was omitted in order to confirm the PBR positive staining of the nuclei of breast carcinoma cells (b). […] In this experiment an FITC-coupled secondary antibody was used to localize the immunoreactive PBR protein. […] PBR ligand binding activity was also determined in the aggressive breast carcinomas using the fluorescent PBR derivative compound 4 (FIG. 10e).

MDA-231 cells = experiment: BrdU cell proliferation ELISA; type: cell-based, human; details: for stimulation of MDA-231 cell proliferation: 48 h
Description: BrdU Cell Proliferation Assays and BrdU-labeling of MDA-231 Cells—MDA-231 cells were plated on 96-well plates (Corning) at a concentration of approximately 10,000 cells/well (24 h incubation) or approximately 5,000 cells/well (48 h incubation) in DMEM supplemented with 0.1% FBS.

MCF-7 nuclei = experiment: Nuclear uptake of 3H-cholesterol, MCF-7 nuclei; type: biochemical, human; details: increasing concentrations of PK11195
Description: as §2

[4] = target: T2, peripheral-type benzodiazepine receptor (PBR); experiment: [3H]PK11195 binding to isolated nuclei (Scatchard analysis); details: pmol/mg nuclear protein
Description: as §1, §2

T2 sequence (P30536 2-169): as the sequence (P30536 2-169) above

displacement of compound 4 fluorescent binding (PBR [1]) | Bmax ([2]; ADR (MCF-7ADR) cells) [pmol/mg protein] | Bmax ([2]; MDA-231 cells) [pmol/mg protein] | displacement of compound 4 fluorescence (PBR [3]; aggressive breast carcinoma biopsies) | displacement of compound 4 fluorescence (PBR [3]; normal human breast tissue) | Bmax ([4]; nuclei isolated from MCF-7 cells) [pmol/mg protein] | Bmax ([4]; nuclei isolated from MDA-231 cells) [pmol/mg protein] | Structure (SMILES) | decrease in the amount of cholesterol uptake (MDA-231 nuclei) [%] | effect on MDA-231 cell proliferation (MDA-231 cells; 24 h, −10 and −9M) | stimulation of MDA-231 cell proliferation (MDA-231 cells; any of the micromolar concentrations) | stimulation of MDA-231 cell proliferation (MDA-231 cells; −8M) [%] | Emax (MDA-231 cells; Homo sapiens, MDA-MB-231, 24 h, −5M, read-out: maximal stimulation of MDA-231 cell proliferation) [%] | toxicity to MDA-231 cells (MDA-231 cells; −4M) | response of cholesterol uptake to PK11195 dose-response (MCF-7 nuclei)
displacement of fluorescent binding | – | – | – | – | – | – | CCCCCCN(CCCCCC)C(=O)Cc1c(-c2ccc(F)cc2)[nH]c2ccccc12 [FGIN-27] | – | – | – | – | – | – | –
– | 1.3±0.23 | 8.7±1.4 | completely displaced the fluorescence | completely displaced the fluorescence | 0.4±0.2 | 6.9±4.8 | CCC(C)N(C)C(=O)c1cc2ccccc2c(-c2ccccc2Cl)n1 (centres unmarked) [PK11195] | ~20 | no effect | no stimulation | 40 | 40 | toxic concentration | failed to respond

Reference: patent publication US7267977B2, “Peripheral-type benzodiazepine receptor: a tool for detection, diagnosis, prognosis, and treatment of cancer” (Georgetown University, priority 1998, dated 2007)
